Test results: PMC10010643 (Cancer Chemotherapy and Pharmacology, 2023)
Where “and” joins values, the source holds several entries; their conditions need not be identical. Identical values can stand only once.

Experiment: Safety and tolerability, Part A single ascending-dose phase in healthy participants
Type: in vivo, human
Description: A further two cohorts were recruited. […] Each individual participated in one treatment period only, with the exception of the food-effect cohort (cohort A3) in which there were two treatment periods separated by at least 7 days washout. Participants resided at the Clinical Research Unit (CRU) from 1 day ahead of dosing (day − 1) to day 3 and returned for a follow-up visit 5–7 days after their final dose. For all cohorts, doses were administered in the fasted state in the morning of day 1 of Treatment Period 1. In the food-effect cohort, doses were given 30 min after the start of a high-fat breakfast (973 calories total: approximately 150 protein calories, 250 carbohydrate calories, and 500–600 fat calories) on day 1 of Treatment Period 2. For cohorts A1 to A5 in Treatment Period 1, dosing occurred such that one pair (one active and one placebo) were dosed at least 24 h before the remaining participants. Continuation to dose those who remained was at the investigator’s discretion. Escalating doses were administered following satisfactory sponsor and investigator review of the safety and tolerability data (up to 48 h post-final dose) and PK data (up to 24 h post-final dose) from the lower dose levels.
Safety and tolerability assessments included adverse event (AE) monitoring, physical examinations, laboratory assessments (hematology, clinical chemistry, and urinalysis), vital signs (blood pressure, pulse rate, and body temperature) and ECG.
No formal statistical assessment was performed for the safety analysis.

[1] = single and multiple doses, Parts A and B
[2] = single dose 5 mg (1 × 5 mg), fasted
[3] = single dose 20 mg (4 × 5 mg), fasted

## OC[C@H]1O[C@H](Sc2cncc(Br)c2)[C@H](O)[C@@H](n2cc(-c3cc(F)c(F)c(F)c3)nn2)[C@H]1O [GB1211]
Part A 100 mg, fasted
  TEAE Pain, participants: 0 n (%)
  TEAE Rash, participants: 0 n (%)
  TEAE Respiratory, thoracic and mediastinal disorders, participants: 0 n (%)
  TEAE Skin and subcutaneous tissue disorders, participants: 0 n (%)
  TEAE Wound, participants: 0 n (%)
Part A 200 mg, fasted
  TEAE Back pain, participants: 0 n (%)
  TEAE Constipation, participants: 0 n (%)
  TEAE Cough, participants: 0 n (%)
  TEAE Decreased appetite, participants: 0 n (%)
  TEAE Diarrhea, participants: 0 n (%)
  TEAE Dry mouth, participants: 0 n (%)
  TEAE Dry skin, participants: 0 n (%)
  TEAE Dyspepsia, participants: 0 n (%)
  TEAE Gastrointestinal disorders, participants: 0 n (%)
  TEAE General disorders and administration site conditions, participants: 0 n (%)
  TEAE Headache, participants: 0 n (%)
  TEAE Infections and infestations, participants: 0 n (%)
  TEAE Injury, poisoning and procedural complications, participants: 0 n (%)
  TEAE Medical device site reaction, participants: 0 n (%)
  TEAE Metabolism and nutrition disorders, participants: 0 n (%)
  TEAE Musculoskeletal and connective tissue disorders, participants: 0 n (%)
  TEAE Nasopharyngitis, participants: 0 n (%)
  TEAE Nervous system disorders, participants: 0 n (%)
  TEAE Pain, participants: 0 n (%)
  TEAE Rash, participants: 0 n (%)
  TEAE Respiratory, thoracic and mediastinal disorders, participants: 0 n (%)
  TEAE Skin and subcutaneous tissue disorders, participants: 0 n (%)
  TEAE Wound, participants: 0 n (%)
Part A 400 mg, fasted
  TEAE Back pain, participants: 0 n (%)
  TEAE Constipation, participants: 0 n (%)
  TEAE Cough, participants: 0 n (%)
  TEAE Decreased appetite, participants: 0 n (%)
  TEAE Diarrhea, participants: 0 n (%)
  TEAE Dry mouth, participants: 0 n (%)
  TEAE Dry skin, participants: 0 n (%)
  TEAE Dyspepsia, participants: 0 n (%)
  TEAE Gastrointestinal disorders, participants: 0 n (%)
  TEAE General disorders and administration site conditions, participants: 0 n (%)
  TEAE Headache, participants: 0 n (%)
  TEAE Infections and infestations, participants: 0 n (%)
  TEAE Injury, poisoning and procedural complications, participants: 0 n (%)
  TEAE Medical device site reaction, participants: 0 n (%)
  TEAE Metabolism and nutrition disorders, participants: 0 n (%)
  TEAE Musculoskeletal and connective tissue disorders, participants: 0 n (%)
  TEAE Nasopharyngitis, participants: 0 n (%)
  TEAE Nervous system disorders, participants: 0 n (%)
  TEAE Pain, participants: 0 n (%)
  TEAE Rash, no. of AEs: 1
  TEAE Rash, participants: 1 (16.7%) n (%)
  TEAE Respiratory, thoracic and mediastinal disorders, participants: 0 n (%)
  TEAE Skin and subcutaneous tissue disorders, no. of AEs: 1
  TEAE Skin and subcutaneous tissue disorders, participants: 1 (16.7%) n (%)
  TEAE Wound, participants: 0 n (%)
Part A, all GB1211 doses
  Number of TEAEs, GB1211 group: 11
  Participants with TEAEs, GB1211 group: 8
[1]
  Safety concerns: No safety concerns were identified
  Tolerability: well tolerated
[2]
  Number of TEAEs: 4
  Participants discontinued due to TEAEs: 0 n (%)
  Participants with SAEs: 0 n (%)
  Participants with TEAEs: 3 (50.0) n (%) and 3 (50.0%) n (%)
  Severity (all TEAEs): Mild: 3 (50.0) n (%)
  Severity (all TEAEs): Moderate: 0 n (%)
  Severity (all TEAEs): Severe: 0 n (%)
  Severity (all TEAEs): Total: 3 (50.0) n (%)
  Severity (possibly related to study treatment): Mild: 1 (16.7) n (%)
  Severity (possibly related to study treatment): Moderate: 0 n (%)
  Severity (possibly related to study treatment): Severe: 0 n (%)
  Severity (possibly related to study treatment): Total: 1 (16.7) n (%)
[3]
  Number of TEAEs: 1
  Participants discontinued due to TEAEs: 0 n (%)
  Participants with SAEs: 0 n (%)
  Participants with TEAEs: 1 (16.7) n (%) and 1 (16.7%) n (%)
  Severity (all TEAEs): Mild: 1 (16.7) n (%)
  Severity (all TEAEs): Moderate: 0 n (%)
  Severity (all TEAEs): Severe: 0 n (%)
  Severity (all TEAEs): Total: 1 (16.7) n (%)
  Severity (possibly related to study treatment): Mild: 0 n (%)
